Test system: Trypanosoma cruzi
Test: Inhibition of Trypanosoma cruzi glucokinase at 20 uM using D-glucose as substrate after 1 hr in presence of ATP and […] by resazurin dye based G6PDH-diaphorase coupled fluorescence assay relative to control
Conditions: not given
`O=C1C(=Cc2ccco2)C(=O)N(c2ccccc2)C(=O)N1c1ccccc1` gave an inhibition of 54.8%.
In the case of `Cc1cc2c(c(O)c1-c1c(C)cc3c(c1O)/C(=C/Nc1c(O)cc(S(=O)(=O)O)c4ccccc14)C(=O)C(O)=C3C(C)C)/C(=C/Nc1c(O)cc(S(=O)(=O)O)c3ccccc13)C(=O)C(O)=C2C(C)C`, the inhibition is reported as 57.8%.
Compound `COc1ccc(Br)cc1/C=C1\C(=O)NC(=O)N(CCC2=CCCCC2)C1=O` has an inhibition of 59.8%.
Compound `O=C1NC(=O)C(=Cc2ccc(Br)s2)C(=O)N1` has an inhibition of 35.9%.
Compound `Cc1cc2c(c(O)c1-c1c(C)cc3c(c1O)/C(=C/Nc1cccc4c(N)cccc14)C(=O)C(O)=C3C(C)C)/C(=C/Nc1cccc3c(N)cccc13)C(=O)C(O)=C2C(C)C` has an inhibition of 66.9%.
With `OC1(C#CCN2CCCC[C@@H]2c2cccnc2)CCCCCC1` the inhibition was 64%.
Work on `CCOc1ccc([C@@H]2Oc3ccc(Br)cc3C=C2[N+](=O)[O-])cc1OC` yielded an inhibition of 43.8%.
With `Cc1cc2c(c(O)c1-c1c(C)cc3c(c1O)/C(=C/Nc1ccc(S(=O)(=O)NC(=N)N)cc1)C(=O)C(O)=C3C(C)C)/C(=C/Nc1ccc(S(=O)(=O)NC(=N)N)cc1)C(=O)C(O)=C2C(C)C` the inhibition was 69.2%.
In the case of `N#CCCOCCC#CCN1CCCC[C@@H]1c1cccnc1`, the inhibition is reported as 36.7%.
`CCOc1ccc([C@@H]2Oc3ccccc3C=C2[N+](=O)[O-])cc1OCC` showed an inhibition of 72.9%.
`O=C(O)C1Nc2c(I)cccc2C2C=CCC12` (stereo not drawn) gave an inhibition of 74.2%.
Compound `COc1ccc(S(=O)(=O)Nc2cccc(Br)c2)c(Cl)c1Cl` has an inhibition of 42.8%.
`Nc1c(C(=O)c2cccc([N+](=O)[O-])c2)sc2nc(-c3cccnc3)ccc12` gave an inhibition of 41.8%.

Organism: Homo sapiens
Test: Inhibition of human glucose-6-phosphate dehydrogenase truncated mutant (29 to 511 residues) at 20 uM in presence of NADP and glucose-6-phosphate by diaphorase/resazurin coupled fluorescence assay relative to control
Conditions: not given
With `O=C1C(=Cc2ccco2)C(=O)N(c2ccccc2)C(=O)N1c1ccccc1` the inhibition was 6.6%.
`Cc1cc2c(c(O)c1-c1c(C)cc3c(c1O)/C(=C/Nc1c(O)cc(S(=O)(=O)O)c4ccccc14)C(=O)C(O)=C3C(C)C)/C(=C/Nc1c(O)cc(S(=O)(=O)O)c3ccccc13)C(=O)C(O)=C2C(C)C` showed an inhibition of 9.4%.
Compound `COc1ccc(Br)cc1/C=C1\C(=O)NC(=O)N(CCC2=CCCCC2)C1=O` has an inhibition of 16.3%.
Compound `O=C1NC(=O)C(=Cc2ccc(Br)s2)C(=O)N1` has an inhibition of 14.8%.
For `Cc1cc2c(c(O)c1-c1c(C)cc3c(c1O)/C(=C/Nc1cccc4c(N)cccc14)C(=O)C(O)=C3C(C)C)/C(=C/Nc1cccc3c(N)cccc13)C(=O)C(O)=C2C(C)C`, the inhibition was 9.6%.
`OC1(C#CCN2CCCC[C@@H]2c2cccnc2)CCCCCC1` gave an inhibition of 7.8%.
`CCOc1ccc([C@@H]2Oc3ccc(Br)cc3C=C2[N+](=O)[O-])cc1OC` gave an inhibition of 8.2%.
Compound `Cc1cc2c(c(O)c1-c1c(C)cc3c(c1O)/C(=C/Nc1ccc(S(=O)(=O)NC(=N)N)cc1)C(=O)C(O)=C3C(C)C)/C(=C/Nc1ccc(S(=O)(=O)NC(=N)N)cc1)C(=O)C(O)=C2C(C)C` has an inhibition of 5.8%.
In the case of `N#CCCOCCC#CCN1CCCC[C@@H]1c1cccnc1`, the inhibition is reported as 9.2%.
With `CCOc1ccc([C@@H]2Oc3ccccc3C=C2[N+](=O)[O-])cc1OCC` the inhibition was 4.3%.
`O=C(O)C1Nc2c(I)cccc2C2C=CCC12` (stereo not drawn) gave an inhibition of 19%.
Work on `COc1ccc(S(=O)(=O)Nc2cccc(Br)c2)c(Cl)c1Cl` yielded an inhibition of 17.5%.
For `Nc1c(C(=O)c2cccc([N+](=O)[O-])c2)sc2nc(-c3cccnc3)ccc12`, the inhibition was 5.1%.

Molecular target: not listed separately
Test: Inhibition of Trypanosoma cruzi glucokinase using D-glucose as substrate in presence of ATP and […] measured for every 30 secs for 10 mins by resazurin dye based G6PDH-diaphorase coupled fluorescence assay relative to control
Conditions: not given
With `O=C1C(=Cc2ccco2)C(=O)N(c2ccccc2)C(=O)N1c1ccccc1` the IC50 was 0.3 µM.
With `Cc1cc2c(c(O)c1-c1c(C)cc3c(c1O)/C(=C/Nc1c(O)cc(S(=O)(=O)O)c4ccccc14)C(=O)C(O)=C3C(C)C)/C(=C/Nc1c(O)cc(S(=O)(=O)O)c3ccccc13)C(=O)C(O)=C2C(C)C` the IC50 was 30.2 µM.
`COc1ccc(Br)cc1/C=C1\C(=O)NC(=O)N(CCC2=CCCCC2)C1=O` showed an IC50 of 8 µM.
With `O=C1NC(=O)C(=Cc2ccc(Br)s2)C(=O)N1` the IC50 was 1.6 µM.
Work on `Cc1cc2c(c(O)c1-c1c(C)cc3c(c1O)/C(=C/Nc1cccc4c(N)cccc14)C(=O)C(O)=C3C(C)C)/C(=C/Nc1cccc3c(N)cccc13)C(=O)C(O)=C2C(C)C` yielded an IC50 of 16.5 µM.
`CCOc1ccc([C@@H]2Oc3ccc(Br)cc3C=C2[N+](=O)[O-])cc1OC` showed an IC50 of 6.1 µM.
With `Cc1cc2c(c(O)c1-c1c(C)cc3c(c1O)/C(=C/Nc1ccc(S(=O)(=O)NC(=N)N)cc1)C(=O)C(O)=C3C(C)C)/C(=C/Nc1ccc(S(=O)(=O)NC(=N)N)cc1)C(=O)C(O)=C2C(C)C` the IC50 was 14.4 µM.
`COc1ccc(S(=O)(=O)Nc2cccc(Br)c2)c(Cl)c1Cl` gave an IC50 of 5.3 µM.

Test system: Trypanosoma cruzi
Test: Antitrypanosomal activity against Trypanosoma cruzi Tulahuen […] infected in mouse NIH/3T3 cells assessed as parasite viability at 80 uM by beta-galactosidase reporter gene assay relative to control
Format: functional
Conditions: not given
Work on `O=C1C(=Cc2ccco2)C(=O)N(c2ccccc2)C(=O)N1c1ccccc1` yielded an Activity of 66.5%.
In the case of `Cc1cc2c(c(O)c1-c1c(C)cc3c(c1O)/C(=C/Nc1c(O)cc(S(=O)(=O)O)c4ccccc14)C(=O)C(O)=C3C(C)C)/C(=C/Nc1c(O)cc(S(=O)(=O)O)c3ccccc13)C(=O)C(O)=C2C(C)C`, the Activity is reported as 20.4%.
With `COc1ccc(Br)cc1/C=C1\C(=O)NC(=O)N(CCC2=CCCCC2)C1=O` the Activity was 88.7%.
`O=C1NC(=O)C(=Cc2ccc(Br)s2)C(=O)N1` showed an Activity of 74.2%.
`Cc1cc2c(c(O)c1-c1c(C)cc3c(c1O)/C(=C/Nc1cccc4c(N)cccc14)C(=O)C(O)=C3C(C)C)/C(=C/Nc1cccc3c(N)cccc13)C(=O)C(O)=C2C(C)C` showed an Activity of 1.7%.
Work on `OC1(C#CCN2CCCC[C@@H]2c2cccnc2)CCCCCC1` yielded an Activity of 22.6%.
With `CCOc1ccc([C@@H]2Oc3ccc(Br)cc3C=C2[N+](=O)[O-])cc1OC` the Activity was 0%.
With `Cc1cc2c(c(O)c1-c1c(C)cc3c(c1O)/C(=C/Nc1ccc(S(=O)(=O)NC(=N)N)cc1)C(=O)C(O)=C3C(C)C)/C(=C/Nc1ccc(S(=O)(=O)NC(=N)N)cc1)C(=O)C(O)=C2C(C)C` the Activity was 0%.
With `N#CCCOCCC#CCN1CCCC[C@@H]1c1cccnc1` the Activity was 50.5%.
`CCOc1ccc([C@@H]2Oc3ccccc3C=C2[N+](=O)[O-])cc1OCC` gave an Activity of 0%.
In the case of `O=C(O)C1Nc2c(I)cccc2C2C=CCC12` (stereo not drawn), the Activity is reported as 44.3%.
`COc1ccc(S(=O)(=O)Nc2cccc(Br)c2)c(Cl)c1Cl` gave an Activity of 0%.
Work on `Nc1c(C(=O)c2cccc([N+](=O)[O-])c2)sc2nc(-c3cccnc3)ccc12` yielded an Activity of 52.7%.

Test system: Trypanosoma cruzi
Test: Antitrypanosomal activity against Trypanosoma cruzi Tulahuen […] infected in mouse NIH/3T3 cells assessed as reduction in parasite viability by beta-galactosidase reporter gene assay
Format: functional, organism-based
Conditions: NIH3T3
Work on `CCOc1ccc([C@@H]2Oc3ccc(Br)cc3C=C2[N+](=O)[O-])cc1OC` yielded an EC50 of 2.1 µM.
For `Cc1cc2c(c(O)c1-c1c(C)cc3c(c1O)/C(=C/Nc1ccc(S(=O)(=O)NC(=N)N)cc1)C(=O)C(O)=C3C(C)C)/C(=C/Nc1ccc(S(=O)(=O)NC(=N)N)cc1)C(=O)C(O)=C2C(C)C`, the EC50 was 17.7 µM.
Work on `COc1ccc(S(=O)(=O)Nc2cccc(Br)c2)c(Cl)c1Cl` yielded an EC50 of 15.4 µM.

Test system: not listed separately
Test: Cytotoxicity against mouse NIH/3T3 cells after 72 hrs by alamar blue assay
Format: cell-based, NIH3T3
Conditions: read-out: TC50
Compound `CCOc1ccc([C@@H]2Oc3ccc(Br)cc3C=C2[N+](=O)[O-])cc1OC` has a CC50 at 72 h of 80.7 µM.
`Cc1cc2c(c(O)c1-c1c(C)cc3c(c1O)/C(=C/Nc1ccc(S(=O)(=O)NC(=N)N)cc1)C(=O)C(O)=C3C(C)C)/C(=C/Nc1ccc(S(=O)(=O)NC(=N)N)cc1)C(=O)C(O)=C2C(C)C` gave a CC50 at 72 h of 45.7 µM.
For `COc1ccc(S(=O)(=O)Nc2cccc(Br)c2)c(Cl)c1Cl`, the CC50 at 72 h was 69 µM.
